From US4292317A, “1,4-Dihydro-quinoline-3-carboxylic acid derivatives, process for their preparation and compositions containing them” (Laboratorie Roger Bellon, priority 1977, dated 1981)
Converted amounts (≈) assume the structure as drawn.

What was measured:
in vivo = settings: mouse, mice
[1] = system: Pseudomonas aeruginosa No. 12; assay: M.I.C. for germ used in experimental infection; format: cell-based; settings: 18 h, Table 4, P. aeruginosa No. 12, read-out: M.I.C.
Experimental: (§1) After sterilisation at 120° C., the pH was 6.8.
(§2) The minimum inhibitory concentrations (M.I.C.) were determined by dilution of the test compounds in this mixture, the concentration ranging from 0.05 to 100 μg/cm^3 in a geometric progression with a factor of 2.
(§3) The inoculation of the dishes was carried out by means of a multiple inoculator with 10^-3 dilutions of 18 hour old broth cultures.
(§4) The dishes were placed in an oven at 37° C. and the readings were taken afer an incubation time of 18 hours. The M.I.C. was taken as the lowest concentration which inhibited a culture.

Strept. pyogenes A. 65 [2] = assay: M.I.C. for germ used in experimental infection; format: cell-based; settings: Streptococcus pyogenes, 18 h; Table 4; Strept. pyogenes A. 65; read-out: M.I.C.
Experimental: as §1, §2, §3, §4

Escherichia coli P 5101 [3] = assay: M.I.C. for germ used in experimental infection; format: cell-based; settings: P5101, 18 h, Table 4, E. coli P 5101, read-out: M.I.C.
Experimental: as §1, §2, §3, §4

Staph. aureus 50,774 [4] = assay: M.I.C. for germ used in experimental infection; format: cell-based; settings: Staphylococcus aureus, 18 h; Table 4; Staph. aureus 50,774; read-out: M.I.C.
Experimental: as §1, §2, §3, §4

Salm. typhi 0901 = assay: microbe, parasite or virus in culture; format: cell-based; settings: Salmonella enterica, 18 h; Table III; Salm. typhi 0901
Experimental: as §1, §2, §3, §4

Strepto D.M. 19 = assay: M.I.C. in vitro, nutrient agar dilution; format: cell-based; settings: 18 h; Table III; Strepto D.M. 19; read-out: M.I.C.
Experimental: as §1, §2, §3, §4

Providentia 0223 = assay: M.I.C. in vitro, nutrient agar dilution; format: cell-based; settings: 18 h; Table III; Providentia 0223; read-out: M.I.C.
Experimental: as §1, §2, §3, §4

Esch. coli 95 I.S.M. = assay: M.I.C. in vitro, nutrient agar dilution; format: cell-based; settings: Escherichia coli, 18 h; Table III; Esch. coli 95 I.S.M.; read-out: M.I.C.
Experimental: as §1, §2, §3, §4

Pr. mirabilis Nig = assay: M.I.C. in vitro, nutrient agar dilution; format: cell-based; settings: Proteus mirabilis, 18 h; Table III; Pr. mirabilis Nig; read-out: M.I.C.
Experimental: as §1, §2, §3, §4

Serratia = assay: M.I.C. in vitro, nutrient agar dilution; format: cell-based; settings: 18 h, Table III, read-out: M.I.C.
Experimental: as §1, §2, §3, §4

Pr. morganii A.236 = assay: M.I.C. in vitro, nutrient agar dilution; format: cell-based; settings: Morganella morganii, 18 h; Table III; Pr. morganii A. 236; read-out: M.I.C.
Experimental: as §1, §2, §3, §4

S. enteritidis Danysz = assay: M.I.C. in vitro, nutrient agar dilution; format: cell-based; settings: Salmonella enterica, 18 h; Table III; S. enteritidis Danysz; read-out: M.I.C.
Experimental: as §1, §2, §3, §4

Esch. coli 54.127 O.M.S. = assay: M.I.C. in vitro, nutrient agar dilution; format: cell-based; settings: Escherichia coli, 18 h; Table III; Esch. coli 54.127 O.M.S.; read-out: M.I.C.
Experimental: as §1, §2, §3, §4

Strepto A 561 = assay: M.I.C. in vitro, nutrient agar dilution; format: cell-based; settings: 18 h; Table III; Strepto A 561
Experimental: as §1, §2, §3, §4

B. subtilis = assay: M.I.C. in vitro, nutrient agar dilution; format: cell-based; settings: Bacillus subtilis, 18 h; Table III; B. Subtilis; read-out: M.I.C.
Experimental: as §1, §2, §3, §4

Arizona 6.211 = assay: M.I.C. in vitro, nutrient agar dilution; format: cell-based; settings: 18 h; Table III; Arizona 6.211; read-out: M.I.C.
Experimental: as §1, §2, §3, §4

Staph. 9.144 = assay: M.I.C. in vitro, nutrient agar dilution; format: cell-based; settings: 18 h; Table III; Staph. 9.144; read-out: M.I.C.
Experimental: as §1, §2, §3, §4

Bord. bronchis. 4.617 = assay: M.I.C. in vitro, nutrient agar dilution; format: cell-based; settings: 18 h; Table III; Bord. bronchis. 4.617; read-out: M.I.C.
Experimental: as §1, §2, §3, §4

S. oranienburg 1066 = assay: M.I.C. in vitro, nutrient agar dilution; format: cell-based; settings: Salmonella enterica, 18 h; Table III; S. oranienburg 1066; read-out: M.I.C.
Experimental: as §1, §2, §3, §4

Pr. vulgaris 12-53 = assay: M.I.C. in vitro, nutrient agar dilution; format: cell-based; settings: Proteus vulgaris, 1253, 18 h; Table III; Pr. vulgaris 12-53; read-out: M.I.C.
Experimental: as §1, §2, §3, §4

Klebs. pneum. 10.031 = assay: M.I.C. in vitro, nutrient agar dilution; format: cell-based; settings: 18 h; Table III; Klebs. pneum. 10.031; read-out: M.I.C.
Experimental: as §1, §2, §3, §4

Esch. coli 111 B4 = assay: M.I.C. in vitro, nutrient agar dilution; format: cell-based; settings: Escherichia coli, 18 h; Table III; Esch. coli 111 B4
Experimental: as §1, §2, §3, §4

Sh. sonnei I.P.S. = assay: M.I.C. in vitro, nutrient agar dilution; format: cell-based; settings: Shigella sonnei, 18 h; Table III; Sh. sonnei I.P.S.; read-out: M.I.C.
Experimental: as §1, §2, §3, §4

Ps. aeruginosa 72.345 = assay: M.I.C. in vitro, nutrient agar dilution; format: cell-based; settings: Pseudomonas aeruginosa, 18 h; Table III; Pd. aeruginosa 72.345; read-out: M.I.C.
Experimental: as §1, §2, §3, §4

Ps. aeruginosa A.22 = assay: M.I.C. in vitro, nutrient agar dilution; format: cell-based; settings: Pseudomonas aeruginosa, 18 h; Table III; Ps. aeruginosa A.22; read-out: M.I.C.
Experimental: as §1, §2, §3, §4

Staph. 209 P = assay: M.I.C. in vitro, nutrient agar dilution; format: cell-based; settings: 18 h; Table III; Staph. 209 P; read-out: M.I.C.
Experimental: as §1, §2, §3, §4

[5] = system: Pseudomonas aeruginosa No. 12; assay: Systemic infection in mice; format: in vivo; settings: po, 168 h, mice, p.o. at infection and 6 hours later, P. aeruginosa No. 12, 7 days
Experimental: (§5) The activity of the compounds according to the invention against systemic infections in mice, caused by Staphylococcus 50,774, Streptococcus pyogenes A 65, Pseudomonas aeruginosa No. 12 and Escherichia coli P 5101, has been studied.
(§6) The infections were set up by intraperitoneal injection of a suspension of the bacterial culture corresponding to the germ studied. The products were administered orally at the time of injection, and 6 hours later. […] Aureus and for 7 days for the other germs.
(§7) Oxolinic acid was used as the reference substance.

Strept. pyogenes A. 65 [6] = assay: Systemic infection in mice; format: in vivo; settings: Streptococcus pyogenes, po, 168 h, mice, p.o. at infection and 6 hours later, Strept. pyogenes A. 65, 7 days
Experimental: as §5, §6, §7

Escherichia coli P 5101 [7] = assay: Systemic infection in mice; format: in vivo; settings: P5101, po, 168 h, mice, p.o. at infection and 6 hours later, E. coli P 5101, 7 days
Experimental: as §5, §6, §7

Staph. aureus 50,774 [8] = assay: Systemic infection in mice; format: in vivo; settings: Staphylococcus aureus, po, 336 h, mice, p.o. at infection and 6 hours later, Staph. aureus 50,774, 14 days
Experimental: as §5, §6, §7

In the case of `C=CCN1CCN(c2cc3c(cc2F)c(=O)c(C(=O)O)cn3CC)CC1` [Example 23, 7-(4-Allylpiperazinyl)-1-ethyl-6-fluoro-4-oxo-1,4-dihydro-quinoline-3-carboxylic acid], the LD50 (in vivo; iv) is reported as 177 mg/kg, the LD50 (in vivo; po) is reported as > 2000 mg/kg and the MIC [1] is reported as 6.25 µg/mL (≈ 17.4 µM). For the same compound, the MIC (Strept. pyogenes A. 65 [2]) was 3.13 µg/mL (≈ 8.71 µM), the MIC (Escherichia coli P 5101 [3]) was 0.39 µg/mL (≈ 1.09 µM) and the MIC (Staph. aureus 50,774 [4]) was 0.39 µg/mL (≈ 1.09 µM). For the same compound, the MIC (Salm. typhi 0901) was 0.1 to 0.4 µg/mL (≈ 0.278 to 1.11 µM), the MIC (Strepto D.M. 19) was 0.8 to 3.15 µg/mL (≈ 2.23 to 8.76 µM) and the MIC (Providentia 0223) was 1.6 to 6.2 µg/mL (≈ 4.45 to 17.3 µM). For the same compound, the MIC (Esch. coli 95 I.S.M.) was 0.1 to 0.4 µg/mL (≈ 0.278 to 1.11 µM), the MIC (Pr. mirabilis Nig) was 0.4 to 0.8 µg/mL (≈ 1.11 to 2.23 µM) and the MIC (Serratia) was 0.025 µg/mL (≈ 0.0696 µM). For the same compound, the MIC (Pr. morganii A.236) was 0.2 µg/mL (≈ 0.556 µM), the MIC (S. enteritidis Danysz) was 0.4 µg/mL (≈ 1.11 µM) and the MIC (Esch. coli 54.127 O.M.S.) was 0.1 to 0.8 µg/mL (≈ 0.278 to 2.23 µM). The MIC (Strepto A 561) was 1.6 to 6.2 µg/mL (≈ 4.45 to 17.3 µM), the MIC (B. subtilis) was 0.1 to 0.2 µg/mL (≈ 0.278 to 0.556 µM) and the MIC (Arizona 6.211) was 0.2 to 0.8 µg/mL (≈ 0.556 to 2.23 µM). It also gave an MIC (Staph. 9.144) of 0.2 µg/mL (≈ 0.556 µM), an MIC (Bord. bronchis. 4.617) of 3.12 µg/mL (≈ 8.68 µM) and an MIC (S. oranienburg 1066) of 6.2 to 12.5 µg/mL (≈ 17.3 to 34.8 µM). It also gave an MIC (Pr. vulgaris 12-53) of 0.2 to 0.4 µg/mL (≈ 0.556 to 1.11 µM), an MIC (Klebs. pneum. 10.031) of 0.1 to 0.2 µg/mL (≈ 0.278 to 0.556 µM) and an MIC (Esch. coli 111 B4) of 0.2 to 0.8 µg/mL (≈ 0.556 to 2.23 µM). The MIC (Sh. sonnei I.P.S.) was 0.1 to 0.2 µg/mL (≈ 0.278 to 0.556 µM), the MIC (Ps. aeruginosa 72.345) was 3.12 µg/mL (≈ 8.68 µM) and the MIC (Ps. aeruginosa A.22) was 1.6 to 3.12 µg/mL (≈ 4.45 to 8.68 µM). The MIC (Staph. 209 P) was 0.1 to 0.2 µg/mL (≈ 0.278 to 0.556 µM), the ED50 ([5]; read-out: ED50) was 13.3 mg/kg and the ED90 ([5]; read-out: ED90) was 26.9 mg/kg. For the same compound, the ED50 (Strept. pyogenes A. 65 [6]; read-out: ED50) was 64.7 mg/kg, the ED90 (Strept. pyogenes A. 65 [6]; read-out: ED90) was 130 mg/kg and the ED50 (Escherichia coli P 5101 [7]; read-out: ED50) was 2.9 mg/kg. It also gave an ED90 (Escherichia coli P 5101 [7]; read-out: ED90) of 5.2 mg/kg, an ED50 (Staph. aureus 50,774 [8]; read-out: ED50) of 5.2 mg/kg and an ED90 (Staph. aureus 50,774 [8]; read-out: ED90) of 17 mg/kg.
